Assays:
Estrogen receptor [1] = biological target: T1, Estrogen receptor (Homo sapiens, UniProt P03372)
T1 sequence (P03372 whole entry): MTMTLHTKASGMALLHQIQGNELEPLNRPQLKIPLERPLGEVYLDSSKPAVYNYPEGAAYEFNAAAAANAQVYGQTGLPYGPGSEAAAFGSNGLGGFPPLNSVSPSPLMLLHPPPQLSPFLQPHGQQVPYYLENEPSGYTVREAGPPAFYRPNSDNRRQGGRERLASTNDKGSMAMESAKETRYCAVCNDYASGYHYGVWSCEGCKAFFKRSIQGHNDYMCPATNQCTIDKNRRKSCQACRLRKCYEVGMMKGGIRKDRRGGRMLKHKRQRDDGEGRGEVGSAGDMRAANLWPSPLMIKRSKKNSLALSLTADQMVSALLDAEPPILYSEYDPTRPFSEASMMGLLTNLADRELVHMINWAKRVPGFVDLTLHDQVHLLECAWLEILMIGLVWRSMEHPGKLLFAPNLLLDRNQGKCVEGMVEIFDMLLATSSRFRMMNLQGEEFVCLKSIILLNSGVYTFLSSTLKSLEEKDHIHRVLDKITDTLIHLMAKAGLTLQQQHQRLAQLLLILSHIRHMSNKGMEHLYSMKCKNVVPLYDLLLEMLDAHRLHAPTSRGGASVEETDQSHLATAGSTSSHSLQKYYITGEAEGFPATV
Description: (§1) Inhibition of transcriptional activation by human estrogen receptor alpha

Estrogen receptor [2] = biological target: T1, Estrogen receptor; remark: listed apart in the source
Description: as §1

Estrogen receptor beta [3] = biological target: T2, Estrogen receptor beta (Homo sapiens, UniProt Q92731); assay: Inhibition of binding to human estrogen receptor beta
T2 sequence (Q92731 whole entry): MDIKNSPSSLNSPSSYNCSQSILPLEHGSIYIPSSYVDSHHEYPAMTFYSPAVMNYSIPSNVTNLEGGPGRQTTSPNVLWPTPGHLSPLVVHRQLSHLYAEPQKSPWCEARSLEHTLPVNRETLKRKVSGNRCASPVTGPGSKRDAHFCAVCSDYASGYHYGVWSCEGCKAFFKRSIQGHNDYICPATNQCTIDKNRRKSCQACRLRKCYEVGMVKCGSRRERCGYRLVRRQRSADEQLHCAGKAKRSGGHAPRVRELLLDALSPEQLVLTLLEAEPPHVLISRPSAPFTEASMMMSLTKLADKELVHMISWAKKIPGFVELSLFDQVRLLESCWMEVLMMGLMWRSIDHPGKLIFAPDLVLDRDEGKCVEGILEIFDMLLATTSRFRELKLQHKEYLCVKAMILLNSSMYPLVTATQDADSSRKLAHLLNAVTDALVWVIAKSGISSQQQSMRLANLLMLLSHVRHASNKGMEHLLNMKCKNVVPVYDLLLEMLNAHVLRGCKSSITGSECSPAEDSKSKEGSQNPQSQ

Estrogen receptor beta [4] = biological target: T2, Estrogen receptor beta; assay: Inhibition of transcriptional activation by human estrogen receptor beta
Estrogen receptor [5] = biological target: T1, Estrogen receptor; remark: listed apart in the source
Description: Inhibition of binding to human estrogen receptor alpha

| SMILES | pIC50(uM) (Estrogen receptor [1]) | further results |
| --- | --- | --- |
| CC1(c2ccc(OCCN3CCCCCC3)cc2)c2ccc(O)cc2CCN1c1ccccc1 (stereo not given) | 2.824 | – |
| CC1(c2ccc(OCCN3CCCCC3)cc2)c2ccc(O)cc2CCN1c1ccccc1 (stereo not given) | 2.585 | – |
| CC1(c2ccc(OCCN3CCCCC3)cc2)c2ccc(O)cc2CCN1c1ccc(Cl)cc1 (stereo not given) | 2.509 | – |
| CC1(c2ccc(OCCN3CCCC3)cc2)c2ccc(O)cc2CCN1c1ccc(F)cc1 (stereo not given) | 2.796 | – |
| CC1(c2ccc(OCCN3CCCC3)cc2)c2ccc(O)cc2CCN1c1ccccc1 (stereo not given) | 2.745 | – |
| CC1(c2ccc(OCCN3CCCCC3)cc2)c2ccc(O)cc2CCN1c1cccc(O)c1 (stereo not given) | 3.155 | – |
| CC1(c2ccc(OCCN3CCCC3)cc2)c2ccc(O)cc2CCN1c1cccc(Cl)c1 (stereo not given) | 2.538 | – |
| CC(C)c1ccc(N2CCc3cc(O)ccc3C2(C)c2ccc(OCCN3CCCC3)cc2)cc1 (stereo not given) | 2.585 | – |
| CC1(c2ccc(OCCN3CCCC3)cc2)c2ccc(O)cc2CCN1c1cccc(F)c1 (stereo not given) | 2.523 | – |
| CN(C)c1cccc(N2CCc3cc(O)ccc3C2c2ccc(OCCN3CCCCC3)cc2)c1 (stereo not given) | – | IC50 (Estrogen receptor [2]): 19.8 nM; IC50 (Estrogen receptor beta [3]): 3110 nM; IC50 (Estrogen receptor beta [4]): 2180 nM; IC50 (Estrogen receptor [5]): 71 nM |
| CC(C)c1ccc(N2CCc3cc(O)ccc3C2(C)c2ccc(OCCN3CCCCC3)cc2)cc1 (stereo not given) | 2.284 | – |
| CC1(c2ccc(OCCN3CCCCC3)cc2)c2ccc(O)cc2CCN1c1cccc(Cl)c1 (stereo not given) | 2.347 | – |

Reference: ChEMBL document CHEMBL1141983, “QSAR of estrogen receptor modulators: exploring selectivity requirements for ER(alpha) versus ER(beta) binding of tetrahydroisoquinoline derivatives using E-state and physicochemical parameters” (Bioorg Med Chem Lett, 2005)
